# In US10851067B2, “Kv7 channel activators compositions and methods of use” (Knopp Biosciences LLC, priority 2018, dated 2020):
# Molecular target: Kv7.2/7.3 (Homo sapiens, UniProt O43525+O43526)
# Assay: Kv7.2/7.3 Thallium Flux Assay
# Format: cell-based
# Design: host or cells: HEK cells, tetracycline-inducible expression
# Conditions: read-out: Kv7.2/7.3 Activity: EC50 of Kv7.2/Kv7.3 activation
# Description: The Thallium Flux Assay is used as a surrogate indicator of potassium channel activity.
# The experimental protocol was adapted from the FluxOR™ II Green Potassium Ion Channel Assay User Guide (Pub. No. MAN0016084, Invitrogen). Conditions were optimized for the Kv7.2/7.3 cell line.
# The hKV7.2/7.3 cell line was obtained from Chantest (Cleveland, Ohio 44128) cat. #CT6147.
# Kv7.2/7.3 cells were maintained in a media containing DMEM/F12; 50/50 (GIBCO cat. #11330), 10% Fetal Bovine Serum (FBS) (GIBCO cat. #26140), 100 units/mL Penicillin-Streptomycin (GIBCO cat. #15140), 0.005 mg/ml Blasticidin (SIGMA 15205), 0.5 mg/mL Geneticin (GIBCO cat. #10131), and 0.1 mg/mL Zeocin (GIBCO cat. #R25001). One day prior to experimentation, cells were plated in 96 well clear bottom plates (Corning cat. #353219) in a media without Blasticidin, Geneticin, or Zeocin. Channel expression was induced by adding tetracycline (Bioline cat. #BIO87030) at a final concentration of 10 ng/mL.
# The test compound is diluted in a mixture of 0.1% DMSO/extracellular solution with an eight-point concentration range from 0.014 μM to 30 μM. Serial dilutions were made on a Biomek NXP (BECKMAN COULTER).
# Measurement and Data Analysis:
# A plate reader (Enspire, Perkin Elmer) is used to characterize the ion-channel modulating properties of novel compounds using an excitation wavelength of 475 nm and an emission wavelength of 530 nm. After a 15 sec baseline measurement, the stimulus buffer containing thallium and potassium is injected. A final endpoint measure is taken after 90 sec. Responses are normalized to positive control (retigabine, 30 µM max). Mean normalized responses at each concentration tested are fit to the standard Hill equation to generate an EC50 and maximal response.
row,SMILES,EC50
1,"CC(C(=O)Nc1nc2c(F)cc(C#N)cc2n1C1(C)CCC1)C1(C(F)(F)F)CC1 (single isomer, unassigned) [Example 494, N-(6-cyano-4-fluoro-1-(1-methylcyclobutyl)-1H-benzo[d]imidazol-2-yl)-2-(1-(trifluoromethyl)cyclopropyl)propanamide]",< 1 µM
2,"CC(C(=O)Nc1nc2c(F)cc(C(C)(C)O)cc2n1C1CCC1)C1(C(F)(F)F)CC1 (single isomer, unassigned) [Example 497, N-(1-cyclobutyl-4-fluoro-6-(2-hydroxypropan-2-yl)-1H-benzo[d]imidazol-2-yl)-2-(1-(trifluoromethyl)cyclopropyl)propanamide]",< 1 µM
3,"CC1(n2c(NC(=O)CC3CC(F)(F)C3(F)F)nc3cc(F)c(F)cc32)CCC1 (single isomer, unassigned) [Example 499, N-(5,6-difluoro-1-(1-methylcyclobutyl)-1H-benzo[d]imidazol-2-yl)-2-(2,2,3,3-tetrafluorocyclobutyl)acetamide]",< 1 µM
4,"CC(C)(O)c1cc(F)c2nc(NC(=O)CC3CC(F)(F)C3(F)F)n(C3(C)CCC3)c2c1 (single isomer, unassigned) [Example 500, N-(4-fluoro-6-(2-hydroxypropan-2-yl)-1-(1-methylcyclobutyl)-1H-benzo[d]imidazol-2-yl)-2-(2,2,3,3-tetrafluorocyclobutyl)acetamide]",< 1 µM
5,"COc1cc(C#N)cc2c1nc(NC(=O)CC1CC(F)(F)C1(F)F)n2C(C)(C)C (single isomer, unassigned) [Example 506, N-(1-(tert-butyl)-6-cyano-4-methoxy-1H-benzo[d]imidazol-2-yl)-2-(2,2,3,3-tetrafluorocyclobutyl)acetamide]",< 1 µM
6,"CC(C)(C)n1c(NC(=O)CC2CC(F)(F)C2(F)F)nc2ccc(F)c(F)c21 (single isomer, unassigned) [Example 509, N-(1-(tert-butyl)-6,7-difluoro-1H-benzo[d]imidazol-2-yl)-2-(2,2,3,3-tetrafluorocyclobutyl)acetamide]",< 1 µM
7,"CC1(n2c(NC(=O)CC3CC(F)(F)C3(F)F)nc3c(F)cc(C#N)cc32)CCC1 (single isomer, unassigned) [Example 512, N-(6-cyano-4-fluoro-1-(1-methylcyclobutyl)-1H-benzo[d]imidazol-2-yl)-2-(2,2,3,3-tetrafluorocyclobutyl)acetamide]",< 1 µM
8,"CC1(n2c(NC(=O)CC3CC(F)(F)C3(F)F)nc3ccc(F)c(F)c32)CCC1 (single isomer, unassigned) [Example 513, N-(6,7-difluoro-1-(1-methylcyclobutyl)-1H-benzo[d]imidazol-2-yl)-2-(2,2,3,3-tetrafluorocyclobutyl)acetamide]",< 1 µM
9,"CC1(n2c(NC(=O)CC3CC(F)(F)C3(F)F)nc3cc(F)cc(F)c32)CCC1 (single isomer, unassigned) [Example 523, N-(5,7-difluoro-1-(1-methylcyclobutyl)-1H-benzo[d]imidazol-2-yl)-2-(2,2,3,3-tetrafluorocyclobutyl)acetamide]",< 1 µM
10,"CC1(n2c(NC(=O)CC3CC(F)(F)C3(F)F)nc3cc(F)ccc32)CCC1 (single isomer, unassigned) [Example 525, N-(5-fluoro-1-(1-methylcyclobutyl)-1H-benzo[d]imidazol-2-yl)-2-(2,2,3,3-tetrafluorocyclobutyl)acetamide]",< 1 µM
11,"CC1(n2c(NC(=O)CC3CC(F)(F)C3(F)F)nc3cc(F)ccc32)CCC1 (single isomer, unassigned) [Example 526, N-(5-fluoro-1-(1-methylcyclobutyl)-1H-benzo[d]imidazol-2-yl)-2-(2,2,3,3-tetrafluorocyclobutyl)acetamide]",< 1 µM
12,"CC(C)(C)n1c(NC(=O)CC2CC(F)(F)C2(F)F)nc2cc(F)ccc21 (single isomer, unassigned) [Example 529, N-(1-(tert-butyl)-5-fluoro-1H-benzo[d]imidazol-2-yl)-2-(2,2,3,3-tetrafluorocyclobutyl)acetamide]",< 1 µM
13,"CC(C)(C)n1c(NC(=O)CC2CC(F)(F)C2(F)F)nc2cc(F)cc(F)c21 (single isomer, unassigned) [Example 532, N-(1-(tert-butyl)-5,7-difluoro-1H-benzo[d]imidazol-2-yl)-2-(2,2,3,3-tetrafluorocyclobutyl)acetamide]",< 1 µM
14,"CC(C)(C)n1c(NC(=O)CC2CC(F)(F)C2(F)F)nc2cc(F)c(Cl)cc21 (single isomer, unassigned) [Example 535, N-(1-(tert-butyl)-6-chloro-5-fluoro-1H-benzo[d]imidazol-2-yl)-2-(2,2,3,3-tetrafluorocyclobutyl)acetamide]",< 1 µM
15,"CC1(n2c(NC(=O)CC3CC(F)(F)C3(F)F)nc3cc(F)c(Cl)cc32)CCC1 (single isomer, unassigned) [Example 539, N-(6-chloro-5-fluoro-1-(1-methylcyclobutyl)-1H-benzo[d]imidazol-2-yl)-2-(2,2,3,3-tetrafluorocyclobutyl)acetamide]",< 1 µM
16,"CC1(n2c(NC(=O)CC3CC(F)(F)C3(F)F)nc3c(F)cc(C#N)c(F)c32)CCC1 (single isomer, unassigned) [Example 542, N-(6-cyano-4,7-difluoro-1-(1-methylcyclobutyl)-1H-benzo[d]imidazol-2-yl)-2-(2,2,3,3-tetrafluorocyclobutyl)acetamide]",< 1 µM

# Continued, values first:
row,EC50,SMILES
1,< 1 µM,"CC(C)(C)n1c(NC(=O)CC2CC(F)(F)C2(F)F)nc2c(F)cc(C#N)c(F)c21 (single isomer, unassigned) [Example 496, N-(1-(tert-butyl)-6-cyano-4,7-difluoro-1H-benzo[d]imidazol-2-yl)-2-(2,2,3,3-tetrafluorocyclobutyl)acetamide]"
2,< 1 µM,"CC(C(=O)Nc1nc2c(F)cc(C#N)cc2n1C1(C)CCC1)C1(C(F)(F)F)CC1 (single isomer, unassigned) [Example 503, N-(6-cyano-4-fluoro-1-(1-methylcyclobutyl)-1H-benzo[d]imidazol-2-yl)-2-(1-(trifluoromethyl)cyclopropyl)propanamide]"
3,< 1 µM,"CC1(n2c(NC(=O)CC3CC(F)(F)C3(F)F)nc3c(F)cc(C#N)c(F)c32)CCC1 (single isomer, unassigned) [Example 504, N-(6-cyano-4,7-difluoro-1-(1-methylcyclobutyl)-1H-benzo[d]imidazol-2-yl)-2-(2,2,3,3-tetrafluorocyclobutyl)acetamide]"
4,1 to 3 µM,"CC(C(=O)Nc1nc2c(F)cc(C(C)(C)O)cc2n1C1CCC1)C1(C(F)(F)F)CC1 (single isomer, unassigned) [Example 508, N-(1-cyclobutyl-4-fluoro-6-(2-hydroxypropan-2-yl)-1H-benzo[d]imidazol-2-yl)-2-(1-(trifluoromethyl)cyclopropyl)propanamide]"
5,< 1 µM,"CC(C(=O)Nc1nc2c(F)cc(C(C)(C)O)cc2n1C1CCC1)C(C)(C)C(F)(F)F (single isomer, unassigned) [Example 515, N-(1-cyclobutyl-4-fluoro-6-(2-hydroxypropan-2-yl)-1H-benzo[d]imidazol-2-yl)-4,4,4-trifluoro-2,3,3-trimethylbutanamide]"
6,< 1 µM,"CC(C)(O)c1cc(F)c2nc(NC(=O)CC3CC(F)(F)C3(F)F)n(C3(C)CCC3)c2c1 (single isomer, unassigned) [Example 519, N-(4-fluoro-6-(2-hydroxypropan-2-yl)-1-(1-methylcyclobutyl)-1H-benzo[d]imidazol-2-yl)-2-(2,2,3,3-tetrafluorocyclobutyl)acetamide]"
7,< 1 µM,"CC(C)(C)n1c(NC(=O)CC2CC(F)(F)C2(F)F)nc2cc(F)ccc21 (single isomer, unassigned) [Example 528, N-(1-(tert-butyl)-5-fluoro-1H-benzo[d]imidazol-2-yl)-2-(2,2,3,3-tetrafluorocyclobutyl)acetamide]"
8,< 1 µM,"CC1(n2c(NC(=O)CC3CC(F)(F)C3(F)F)nc3ccc(F)c(C#N)c32)CCC1 (single isomer, unassigned) [Example 536, N-(7-cyano-6-fluoro-1-(1-methylcyclobutyl)-1H-benzo[d]imidazol-2-yl)-2-(2,2,3,3-tetrafluorocyclobutyl)acetamide]"
9,< 1 µM,"CC1(n2c(NC(=O)CC3CC(F)(F)C3(F)F)nc3ccc(F)c(C#N)c32)CCC1 (single isomer, unassigned) [Example 537, N-(7-cyano-6-fluoro-1-(1-methylcyclobutyl)-1H-benzo[d]imidazol-2-yl)-2-(2,2,3,3-tetrafluorocyclobutyl)acetamide]"
10,< 1 µM,"CC(C(=O)Nc1nc2cc(F)c(F)cc2n1C1(C)CCC1)C1(C(F)(F)F)CC1 (single isomer, unassigned) [Example 540, N-(5,6-difluoro-1-(1-methylcyclobutyl)-1H-benzo[d]imidazol-2-yl)-2-(1-(trifluoromethyl)cyclopropyl)propanamide]"
